{
  "source": "paper PMC12325145",
  "about": "“Preclinical evaluation of [^68Ga]Ga-AAZTA-FAPI-46: a novel PET tracer for targeting fibroblast activation protein (FAP)” (EJNMMI Radiopharmacy and Chemistry, 2025)",
  "molecular_target": "T1, fibroblast activation protein (FAP) (Mus musculus, UniProt P97321)",
  "T1 construct": "murine FAP stably expressed in HEK293 cells (pCMV6-Kan/Neo-mFAP, Origene MC206606)",
  "T1 sequence (P97321 1-761)": "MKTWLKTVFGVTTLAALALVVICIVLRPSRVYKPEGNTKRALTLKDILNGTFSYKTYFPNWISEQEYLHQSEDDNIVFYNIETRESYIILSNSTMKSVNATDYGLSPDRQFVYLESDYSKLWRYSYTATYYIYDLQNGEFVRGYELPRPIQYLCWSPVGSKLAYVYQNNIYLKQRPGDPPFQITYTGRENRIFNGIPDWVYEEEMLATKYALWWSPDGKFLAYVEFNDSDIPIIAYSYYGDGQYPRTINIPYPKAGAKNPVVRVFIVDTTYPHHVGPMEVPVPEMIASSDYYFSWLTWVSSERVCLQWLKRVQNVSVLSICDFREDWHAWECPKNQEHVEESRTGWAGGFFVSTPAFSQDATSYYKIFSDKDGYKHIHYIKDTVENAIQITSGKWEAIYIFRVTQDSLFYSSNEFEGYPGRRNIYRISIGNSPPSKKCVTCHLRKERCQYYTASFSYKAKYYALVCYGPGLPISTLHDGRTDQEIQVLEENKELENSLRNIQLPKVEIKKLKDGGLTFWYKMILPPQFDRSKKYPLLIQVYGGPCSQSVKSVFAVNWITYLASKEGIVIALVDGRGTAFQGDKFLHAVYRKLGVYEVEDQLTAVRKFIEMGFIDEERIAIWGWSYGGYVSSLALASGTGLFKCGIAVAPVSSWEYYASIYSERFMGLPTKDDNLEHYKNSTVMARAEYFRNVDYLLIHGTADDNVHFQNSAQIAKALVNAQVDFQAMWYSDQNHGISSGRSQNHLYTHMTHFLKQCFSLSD",
  "test": "radioligand competition with unlabelled tracer on HEK293T-FAP cells, […] °C, […] h",
  "assay_type": "cell-based",
  "data": [
    {"smiles": "CN(CCCN1CCN(C(=O)CCCCC2(N(CC(=O)[O-])CC(=O)[O-])CN(CC(=O)[O-])CCN(CC(=O)[O-])C2)CC1)c1ccc2nccc(C(=O)NCC(=O)N3CC(F)(F)C[C@@H]3C#N)c2c1.[68Ga+3]", "note": "[[^68Ga]Ga-AAZTA-FAPI-46]", "values": [
      {"measurement": "IC50", "result": "4.61 ± 0.21", "unit": "nM"}
    ]}
  ]
}
